From US7432365B1, “DNA molecules encoding beta clamp proteins of gram positive bacteria” (priority 1998, dated 2008)

Columns and labels:
DnaE polymerase = experiment: Inhibition of synthesis on SSB coated primed M13mp18 ssDNA by TMAU; assay type: biochemical, S. pyogenes
Protocol: (§1) To test DnaE for function with τδδ′ and β, replication reactions contained 70 ng (25 fmol) of 30-mer singly primed M13 mp18 ssDNA, 0.82 μg of S. pyogenes SSB, and 3.3 ng-300 ng of DnaE (25 fmol −2.3 pmol) in 23.5 μl of 20 mM Tris-HCl (pH 7.5), 4% glycerol, 0.1 mM EDTA, 5 mM dithiothreitol (DTT), 40 μg/ml BSA, 2 mM ATP, 8 mM MgCl2, and 60 μM each of dGTP and dCTP. When present, reactions included 43.3 ng of β and 10 ng of τδδ′. Reactions were preincubated for 3 min at 37° C., and then NaCl was added to 40 mM followed by another 2 min at 37° C. DNA synthesis was initiated upon addition of 1.5 μl of 1.5 mM dATP, 0.5 mM [α^32P]-dTTP (specific activity 2,000-4,000 cpm/pmol). Aliquots of 25 μl were removed at the indicated times and quenched with an equal volume (25 μl) of 1% SDS, 40 mM EDTA. One-half of the quenched reaction was analyzed for total deoxynucleotide incorporation using DE81 filter paper and the other half was analyzed on a 0.8% neutral agarose gel. The effect of TMAU was also examined, in which 100 μM TMAU in DMSO (2% DMSO final concentration) was present. In this case, replication was allowed to proceed for 1 min before being quenched with […] of 1% SDS, 40 mM EDTA.
(§2) Gram positive PolC is known to be inhibited by the antibiotic hydroxyphenylaza-uracil (“HPUra”) and its derivatives. In FIG. 21F, the PolC·τδδ′, β and DnaE were tested for inhibition of synthesis on SSB coated primed M13mp18 ssDNA by an HPUra derivative, trimethylanilino-uracil (“TMAU”).

PolC·τδδ′, β = target: T1, PolC·τδδ′, β (Streptococcus pyogenes, UniProt P0C0B7); experiment: as above; assay type: biochemical, S. pyogenes; details: 100 μM TMAU, 2% DMSO, 1 min
T1 construct: made in house; host or cells: E. coli BL21(DE3) RecA-, pET11a (β: pET16b)
Protocol: as §1, §2

Gram positive PolC = Gram positive PolC (Bacillus subtilis, UniProt P13267); details: known from the literature; cited from earlier work
S. aureus Pol III-L = target: T2, S. aureus Pol III-L (Staphylococcus aureus, UniProt P0C1P9); experiment: PolydA-oligodT replication assay, stimulation by beta; assay type: biochemical; details: linear polydA-oligodT template
T2 construct: made in house; host or cells: E. coli BL21(DE3), pET11PolC (β: pET16b)
Protocol: PolydA-oligodT was prepared as follows. […] OligodT35 was synthesized by Oligos etc.

E. coli Pol III core = E. coli Pol III core (Escherichia coli, UniProt P10443); details: linear polydA-oligodT template
Text: DNA synthesis was quantitated using DE81 paper as described in Rowen et al., “Primase, the DnaG Protein of Escherichia coli. An Enzyme Which Starts DNA Chains,” J. Biol. Chem., 253:758-764 (1979), which is hereby incorporated by reference.

T1 sequence (P0C0B7 whole entry D425A/L426T/C427Y/G428V/L429V/S430F): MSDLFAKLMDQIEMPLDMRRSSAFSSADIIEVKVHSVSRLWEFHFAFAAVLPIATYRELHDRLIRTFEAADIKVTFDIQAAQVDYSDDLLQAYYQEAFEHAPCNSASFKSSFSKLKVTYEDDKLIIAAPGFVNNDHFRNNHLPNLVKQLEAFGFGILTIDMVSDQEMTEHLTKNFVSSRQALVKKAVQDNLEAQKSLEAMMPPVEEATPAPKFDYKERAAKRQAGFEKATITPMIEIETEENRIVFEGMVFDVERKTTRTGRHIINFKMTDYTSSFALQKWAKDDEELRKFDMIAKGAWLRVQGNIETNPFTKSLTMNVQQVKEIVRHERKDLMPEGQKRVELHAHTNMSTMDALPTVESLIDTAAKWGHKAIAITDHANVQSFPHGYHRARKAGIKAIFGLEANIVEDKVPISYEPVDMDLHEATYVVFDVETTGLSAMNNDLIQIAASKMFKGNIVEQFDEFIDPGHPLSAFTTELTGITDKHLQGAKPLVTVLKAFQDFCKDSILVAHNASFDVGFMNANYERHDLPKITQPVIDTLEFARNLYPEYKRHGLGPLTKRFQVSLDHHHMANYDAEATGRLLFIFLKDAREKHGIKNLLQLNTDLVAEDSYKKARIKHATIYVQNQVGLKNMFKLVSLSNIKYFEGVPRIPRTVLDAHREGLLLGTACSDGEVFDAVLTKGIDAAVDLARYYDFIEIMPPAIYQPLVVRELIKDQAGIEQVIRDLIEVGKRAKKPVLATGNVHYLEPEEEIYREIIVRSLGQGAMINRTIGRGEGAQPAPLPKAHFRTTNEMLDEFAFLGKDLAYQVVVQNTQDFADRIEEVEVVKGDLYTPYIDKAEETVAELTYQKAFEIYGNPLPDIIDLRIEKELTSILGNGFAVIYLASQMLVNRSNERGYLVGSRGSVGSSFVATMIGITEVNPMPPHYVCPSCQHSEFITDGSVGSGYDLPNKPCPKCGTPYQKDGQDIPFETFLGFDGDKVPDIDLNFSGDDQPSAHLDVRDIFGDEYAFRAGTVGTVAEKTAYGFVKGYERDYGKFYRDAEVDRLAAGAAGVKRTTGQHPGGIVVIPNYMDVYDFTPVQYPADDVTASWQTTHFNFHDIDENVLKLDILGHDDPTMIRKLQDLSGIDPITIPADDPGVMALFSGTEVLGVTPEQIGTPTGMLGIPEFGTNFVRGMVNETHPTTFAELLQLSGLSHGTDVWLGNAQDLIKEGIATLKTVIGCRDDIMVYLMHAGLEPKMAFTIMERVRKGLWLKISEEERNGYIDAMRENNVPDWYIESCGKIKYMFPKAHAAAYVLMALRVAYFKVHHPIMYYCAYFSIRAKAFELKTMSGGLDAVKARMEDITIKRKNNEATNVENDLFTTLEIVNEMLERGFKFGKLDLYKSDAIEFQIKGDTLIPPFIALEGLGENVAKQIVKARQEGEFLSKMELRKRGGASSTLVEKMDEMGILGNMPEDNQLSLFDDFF
T2 sequence (P0C1P9 whole entry): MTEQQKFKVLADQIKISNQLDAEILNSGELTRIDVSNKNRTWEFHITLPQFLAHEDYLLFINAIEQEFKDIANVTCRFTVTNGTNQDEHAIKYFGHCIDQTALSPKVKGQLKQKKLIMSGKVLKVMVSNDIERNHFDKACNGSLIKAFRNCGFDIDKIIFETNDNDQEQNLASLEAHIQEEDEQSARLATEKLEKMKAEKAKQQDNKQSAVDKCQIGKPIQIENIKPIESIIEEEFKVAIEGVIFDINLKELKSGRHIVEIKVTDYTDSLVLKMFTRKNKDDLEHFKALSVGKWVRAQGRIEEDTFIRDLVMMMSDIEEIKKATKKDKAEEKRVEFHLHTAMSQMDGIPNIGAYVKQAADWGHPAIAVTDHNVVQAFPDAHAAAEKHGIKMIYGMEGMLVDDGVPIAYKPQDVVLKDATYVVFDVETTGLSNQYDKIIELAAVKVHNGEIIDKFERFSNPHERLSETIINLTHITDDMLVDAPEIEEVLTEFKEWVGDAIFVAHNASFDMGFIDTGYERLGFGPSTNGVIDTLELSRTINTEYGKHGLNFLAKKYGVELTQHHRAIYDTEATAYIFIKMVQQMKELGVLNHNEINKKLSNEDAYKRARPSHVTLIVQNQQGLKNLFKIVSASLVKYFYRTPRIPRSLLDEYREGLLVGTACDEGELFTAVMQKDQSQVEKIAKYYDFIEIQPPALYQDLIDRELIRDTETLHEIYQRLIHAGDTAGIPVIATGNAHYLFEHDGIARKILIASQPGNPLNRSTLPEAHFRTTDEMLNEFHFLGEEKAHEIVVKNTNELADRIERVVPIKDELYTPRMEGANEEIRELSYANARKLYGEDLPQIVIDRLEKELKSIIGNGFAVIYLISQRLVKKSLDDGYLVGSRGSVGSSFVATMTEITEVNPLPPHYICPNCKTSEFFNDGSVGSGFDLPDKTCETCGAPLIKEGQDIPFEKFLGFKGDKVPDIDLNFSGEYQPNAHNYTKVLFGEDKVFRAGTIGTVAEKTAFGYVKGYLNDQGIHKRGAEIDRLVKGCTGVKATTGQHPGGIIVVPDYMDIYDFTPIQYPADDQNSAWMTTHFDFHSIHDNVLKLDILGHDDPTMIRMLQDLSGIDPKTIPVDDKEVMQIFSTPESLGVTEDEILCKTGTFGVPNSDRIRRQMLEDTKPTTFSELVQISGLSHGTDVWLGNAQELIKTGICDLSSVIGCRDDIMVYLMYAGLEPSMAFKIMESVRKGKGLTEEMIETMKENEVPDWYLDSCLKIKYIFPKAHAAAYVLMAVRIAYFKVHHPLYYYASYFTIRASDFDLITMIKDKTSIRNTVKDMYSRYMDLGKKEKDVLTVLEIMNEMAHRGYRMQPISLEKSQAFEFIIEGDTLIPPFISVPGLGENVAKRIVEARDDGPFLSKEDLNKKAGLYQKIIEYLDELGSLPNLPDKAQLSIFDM
Chain of Gram positive PolC (P13267 whole entry): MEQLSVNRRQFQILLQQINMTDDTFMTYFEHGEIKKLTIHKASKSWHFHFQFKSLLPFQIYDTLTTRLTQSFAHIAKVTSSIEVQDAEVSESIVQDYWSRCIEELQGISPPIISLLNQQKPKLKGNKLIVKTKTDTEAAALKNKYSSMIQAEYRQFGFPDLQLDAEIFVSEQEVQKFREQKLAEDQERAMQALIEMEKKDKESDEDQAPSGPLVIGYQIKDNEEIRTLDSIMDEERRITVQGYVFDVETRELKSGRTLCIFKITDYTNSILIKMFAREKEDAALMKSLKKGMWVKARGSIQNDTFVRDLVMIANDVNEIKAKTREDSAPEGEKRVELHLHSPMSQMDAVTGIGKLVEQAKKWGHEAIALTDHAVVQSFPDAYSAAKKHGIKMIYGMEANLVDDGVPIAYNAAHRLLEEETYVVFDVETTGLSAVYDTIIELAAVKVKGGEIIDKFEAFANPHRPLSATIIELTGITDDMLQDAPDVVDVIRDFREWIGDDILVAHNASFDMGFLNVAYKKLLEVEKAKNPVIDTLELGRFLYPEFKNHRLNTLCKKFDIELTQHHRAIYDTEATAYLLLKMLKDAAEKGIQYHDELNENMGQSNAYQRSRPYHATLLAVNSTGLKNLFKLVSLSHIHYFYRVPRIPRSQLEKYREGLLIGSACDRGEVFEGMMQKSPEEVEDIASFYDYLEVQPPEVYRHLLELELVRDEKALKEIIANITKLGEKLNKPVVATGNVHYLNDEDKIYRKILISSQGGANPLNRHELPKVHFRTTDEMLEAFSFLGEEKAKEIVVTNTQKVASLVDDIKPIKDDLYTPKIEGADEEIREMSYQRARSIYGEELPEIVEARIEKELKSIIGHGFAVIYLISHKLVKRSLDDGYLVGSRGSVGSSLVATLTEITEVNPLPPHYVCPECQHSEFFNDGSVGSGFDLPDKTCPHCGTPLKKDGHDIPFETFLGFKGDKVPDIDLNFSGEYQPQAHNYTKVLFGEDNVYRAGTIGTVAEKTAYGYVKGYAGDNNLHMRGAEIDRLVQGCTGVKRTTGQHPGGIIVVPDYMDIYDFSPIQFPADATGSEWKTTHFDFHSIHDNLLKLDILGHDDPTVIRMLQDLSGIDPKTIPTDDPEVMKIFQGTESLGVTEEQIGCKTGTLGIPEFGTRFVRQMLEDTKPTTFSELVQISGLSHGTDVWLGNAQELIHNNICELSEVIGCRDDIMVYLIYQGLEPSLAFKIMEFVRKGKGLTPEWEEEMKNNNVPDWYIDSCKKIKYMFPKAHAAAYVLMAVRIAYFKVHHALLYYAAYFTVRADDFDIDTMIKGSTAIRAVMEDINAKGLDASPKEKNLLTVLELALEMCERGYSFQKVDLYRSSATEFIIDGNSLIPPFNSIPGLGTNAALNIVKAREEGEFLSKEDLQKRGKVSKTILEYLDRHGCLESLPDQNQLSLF

In the case of `O=c1cc(Nc2ccc3c(c2)CCC3)[nH]c(=O)[nH]1` [TMAU, trimethylanilino-uracil], the “Inhibition of synthesis (formation of RFII product)” value (from here on “Inhibition of synthesis”) (DnaE polymerase; 100 μM TMAU, in the presence of τδδ′/β) is reported as “not affected”, the “Inhibition of synthesis” value (DnaE polymerase; TMAU, in the absence of τδδ′/β (not shown)) is reported as “not affected” and the “Inhibition of synthesis” value (PolC·τδδ′, β) is reported as “prevented from forming the RFII product”.

In the case of `O=c1cc(N=Nc2ccc(O)cc2)[nH]c(=O)[nH]1` [HPUra, hydroxyphenylaza-uracil], the “Inhibition of Gram positive PolC” value (Gram positive PolC) is listed as “inhibited”.

B1: S. aureus beta: S. aureus beta subunit encoded by dnaN, SEQ. ID. No. 10, sliding clamp (protein)
chain: MMEFTIKRDYFITQLNDTLKAISPRTTLPILTGIKIDAKEHEVILTGSDSEISIEITIPKTVDGEDIVNISETGSVVLPGRFFVDIIKKLPGKDVKLSTNEQFQTLITSGHSEFNLSGLDPDQYPLLPQVSRDDAIQLSVKVLKNVIAQTNFAVSTSETRPVLTGVNWLIQENELICTATDSHRLAVRKLQLEDVSENKNVIIPGKALAELNKIMSDNEEDIDIFFASNQVLFKVGNVNFISRLLEGHYPDTTRLFPENYEIKLSIDNGEFYHAIDRASLLAREGGNNVIKLSTGDDVVELSSTSPEIGTVKEEVDANDVEGGSLKISFNSKYMMDALKAIDNDEVEVEFFGTMKPFILKPKGDDSVTQLILPIRTY
modifications: left off: small tags and cut ends
notes: ID; No. 10, sliding clamp
For B1, the “Stimulation of polymerase DNA synthesis” value (S. aureus Pol III-L) was 5-6 fold and the “Stimulation of polymerase DNA synthesis” value (E. coli Pol III core) was “about 5 fold”.
